Reference: patent US10071957B2, “N-substituted benzamides and methods of use thereof” (GENENTECH, INC., priority 2012, dated 2018)
Blank lines part the entries; values can stand above or below the compound they belong to.

What was measured:
hNaV1.7 [1] = target: T1, hNaV1.7 (Homo sapiens (Human), UniProt Q15858); test: Patch voltage clamp electrophysiology, inactivated state block of NaV1.7 in HEK-293 cells; type: cell-based; conditions: HEK cells with β1 subunit, read-out: hNaV 1.7 IC50
Procedure: Patch voltage clamp electrophysiology allows for the direct measurement and quantification of block of voltage-gated sodium channels (NaV's), and allows the determination of the time- and voltage-dependence of block which has been interpreted as differential binding to the resting, open, and inactivated states of the sodium channel (Hille, B., Journal of General Physiology (1977), 69: 497-515).
The following patch voltage clamp electrophysiology studies were performed on representative compounds of the invention using human embryonic kidney cells (HEK), permanently transfected with an expression vector containing the full-length cDNA coding for the desired human sodium channel α-subunit, grown in culture media containing 10% FBS, 1% PSG, and 0.5 mg/mL G418 at 37° C. with 5% CO2. […] NaV1.7 and NaV1.5 cDNAs (NM_002977 and AC137587; SCN5A, respectively) were stably expressed in HEK-293 cells. The β1 subunit was coexpressed in both the NaV1.7 and NaV1.5 cell lines.
Sodium currents were measured using the patch clamp technique in the whole-cell configuration using either a PatchXpress automated voltage clamp or manually using an Axopatch 200B (Axon Instruments) or Model 2400 (A-M systems) amplifier. The manual voltage clamp protocol was as follows:
The pipette was filled with a solution comprised of: 5 mM NaCl, 10 mM CsCl, 120 mM CsF, 0.1 mM CaCl2, 2 mM MgCl2, 10 mM HEPES, 10 mM EGTA; and adjusted to pH 7.2 with CsOH. The external solution had the following composition: 140 mM NaCl, 5 mM KCl, 2 mM CaCl2, 1 mM MgCl2, 10 mM HEPES; and adjusted to pH 7.4 with NaOH. In some studies, the external sodium was reduced by equimolar replacement with choline. Osmolarity in the CsF internal and NaCl external solutions was adjusted to 300 mOsm/kg and 310 mOsm/kg with glucose, respectively. All recordings were performed at ambient temperature in a bath chamber with a volume of 150 μL. Control sodium currents were measured in 0.5% DMSO. Controls and representative compounds of the invention were applied to the recording chamber through a 4-pinch or 8-pinch valve bath perfusion system manufactured by ALA Scientific Instruments.
Currents were recorded at 40 kHz sampling frequency, filtered at […], and stored using a Digidata-1322A analogue/digital interface with the pClamp software (Axon Instruments). Series resistance compensation was applied (60-80%). […] All statistics in this study are given as mean±SD.
The membrane potential was maintained at a voltage where inactivation of the channel is complete (which was −60 mV for both NaV1.7 and NaV1.5). […] The percent decrease in sodium current following wash-on of compound was taken as the percent block of sodium channels.

hNaV1.7 [2] = target: T1, hNaV1.7; test: Competitive binding of tritiated compound to membranes from cells expressing hNav1.7 and the β1 subunit; conditions: 100 pM [3H]compound, 18 h, room temperature; read-out: NaV1.7 395 Membrane Binding IC50
Procedure: Tritiated compound binding to membranes isolated from cells that heterologously express hNav1.7 and the β1 subunit
Preparation of membranes containing recombinantly expressed sodium channels: Frozen recombinant cell pellets were thawed on ice and diluted to 4 times the cell pellet weight with ice cold 50 mM Tris HCl, pH 7.4 buffer. The cell suspensions were homogenized on ice using a motorized glass dounce homogeniser. Homogenates were further diluted 8.4 times with ice cold 50 mM Tris HCl, pH 7.4 buffer and then centrifuged at 200×g at 4° C. for 15 min. The supernatants were collected and centrifuged at 10000×g at 4° C. for 50 min. The pellets were then re-suspended in 100 mM NaCl, 20 mM Tris HCl, pH 7.4 buffer containing 1% v/v protease inhibitors (Calbiochem) and re-homogenized on ice. The homogenized membranes were then processed through a syringe equipped with a 26 gauge needle. Protein concentrations were determined by Bradford Assay and the membranes were stored at −80° C.
Radioligand Binding Studies: Saturation experiments. A representative compound of formula (I) was tritiated. Three tritiums were incorporated in place of methyl hydrogens to generate [^3H]compound. Binding of this radioligand was performed in 5 mL borosilicate glass test tubes at room temperature. Binding was initiated by adding membranes to increasing concentrations of [^3H]compound in 100 mM NaCl, 20 mM Tris HCl, pH 7.4 buffer containing 0.01% w/v bovine serum albumin (BSA) for 18 h. Non-specific binding was determined in the presence of 1 μM unlabelled compound. After 18 h, the reactants were filtered through GF/C glass fiber filters presoaked in 0.5% w/v polyethylene imine. Filters were washed with 15 mL ice cold 100 mM NaCl, 20 mM Tris HCl, pH 7.4 buffer containing 0.25% BSA to separate bound from free ligand. [^3H]compound bound to filters was quantified by liquid scintillation counting.
Competitive binding experiments. Binding reactions were performed in 96-well polypropylene plates at room temperature for 18 h. In 360 μL, membranes were incubated with 100 pM [^3H]compound and increasing concentrations of Test Compound. Non-specific binding was defined in the presence of 1 μM unlabelled compound. Reactions were transferred and filtered through 96-well glass fiber/C filter plates presoaked with 0.5% polyethylene imine. The filtered reactions were washed 5 times with 200 μL ice cold buffer containing 0.25% BSA. Bound radioactivity was determined by liquid scintillation counting.
Data Analysis: For saturation experiments, non-specific binding was subtracted from total binding to provide specific binding and these values were recalculated in terms of pmol ligand bound per mg protein. Saturation curves were constructed and dissociation constants were calculated using the single site ligand binding model: Beq=(Bmax*X)/(X+Kd), where Beq is the amount of ligand bound at equilibrium, Bmax is the maximum receptor density, Kd is the dissociation constant for the ligand, and X is the free ligand concentration. For competition studies percent inhibition was determined and IC50 values were calculated using a 4 parameter logistic model (% inhibition=(A+((B−A)/(1+((x/C)^D)))) using XLfit, where A and B are the maximal and minimum inhibition respectively, C is the IC50 concentration and D is the (Hill) slope.

T1 sequence (Q15858 whole entry, looked up): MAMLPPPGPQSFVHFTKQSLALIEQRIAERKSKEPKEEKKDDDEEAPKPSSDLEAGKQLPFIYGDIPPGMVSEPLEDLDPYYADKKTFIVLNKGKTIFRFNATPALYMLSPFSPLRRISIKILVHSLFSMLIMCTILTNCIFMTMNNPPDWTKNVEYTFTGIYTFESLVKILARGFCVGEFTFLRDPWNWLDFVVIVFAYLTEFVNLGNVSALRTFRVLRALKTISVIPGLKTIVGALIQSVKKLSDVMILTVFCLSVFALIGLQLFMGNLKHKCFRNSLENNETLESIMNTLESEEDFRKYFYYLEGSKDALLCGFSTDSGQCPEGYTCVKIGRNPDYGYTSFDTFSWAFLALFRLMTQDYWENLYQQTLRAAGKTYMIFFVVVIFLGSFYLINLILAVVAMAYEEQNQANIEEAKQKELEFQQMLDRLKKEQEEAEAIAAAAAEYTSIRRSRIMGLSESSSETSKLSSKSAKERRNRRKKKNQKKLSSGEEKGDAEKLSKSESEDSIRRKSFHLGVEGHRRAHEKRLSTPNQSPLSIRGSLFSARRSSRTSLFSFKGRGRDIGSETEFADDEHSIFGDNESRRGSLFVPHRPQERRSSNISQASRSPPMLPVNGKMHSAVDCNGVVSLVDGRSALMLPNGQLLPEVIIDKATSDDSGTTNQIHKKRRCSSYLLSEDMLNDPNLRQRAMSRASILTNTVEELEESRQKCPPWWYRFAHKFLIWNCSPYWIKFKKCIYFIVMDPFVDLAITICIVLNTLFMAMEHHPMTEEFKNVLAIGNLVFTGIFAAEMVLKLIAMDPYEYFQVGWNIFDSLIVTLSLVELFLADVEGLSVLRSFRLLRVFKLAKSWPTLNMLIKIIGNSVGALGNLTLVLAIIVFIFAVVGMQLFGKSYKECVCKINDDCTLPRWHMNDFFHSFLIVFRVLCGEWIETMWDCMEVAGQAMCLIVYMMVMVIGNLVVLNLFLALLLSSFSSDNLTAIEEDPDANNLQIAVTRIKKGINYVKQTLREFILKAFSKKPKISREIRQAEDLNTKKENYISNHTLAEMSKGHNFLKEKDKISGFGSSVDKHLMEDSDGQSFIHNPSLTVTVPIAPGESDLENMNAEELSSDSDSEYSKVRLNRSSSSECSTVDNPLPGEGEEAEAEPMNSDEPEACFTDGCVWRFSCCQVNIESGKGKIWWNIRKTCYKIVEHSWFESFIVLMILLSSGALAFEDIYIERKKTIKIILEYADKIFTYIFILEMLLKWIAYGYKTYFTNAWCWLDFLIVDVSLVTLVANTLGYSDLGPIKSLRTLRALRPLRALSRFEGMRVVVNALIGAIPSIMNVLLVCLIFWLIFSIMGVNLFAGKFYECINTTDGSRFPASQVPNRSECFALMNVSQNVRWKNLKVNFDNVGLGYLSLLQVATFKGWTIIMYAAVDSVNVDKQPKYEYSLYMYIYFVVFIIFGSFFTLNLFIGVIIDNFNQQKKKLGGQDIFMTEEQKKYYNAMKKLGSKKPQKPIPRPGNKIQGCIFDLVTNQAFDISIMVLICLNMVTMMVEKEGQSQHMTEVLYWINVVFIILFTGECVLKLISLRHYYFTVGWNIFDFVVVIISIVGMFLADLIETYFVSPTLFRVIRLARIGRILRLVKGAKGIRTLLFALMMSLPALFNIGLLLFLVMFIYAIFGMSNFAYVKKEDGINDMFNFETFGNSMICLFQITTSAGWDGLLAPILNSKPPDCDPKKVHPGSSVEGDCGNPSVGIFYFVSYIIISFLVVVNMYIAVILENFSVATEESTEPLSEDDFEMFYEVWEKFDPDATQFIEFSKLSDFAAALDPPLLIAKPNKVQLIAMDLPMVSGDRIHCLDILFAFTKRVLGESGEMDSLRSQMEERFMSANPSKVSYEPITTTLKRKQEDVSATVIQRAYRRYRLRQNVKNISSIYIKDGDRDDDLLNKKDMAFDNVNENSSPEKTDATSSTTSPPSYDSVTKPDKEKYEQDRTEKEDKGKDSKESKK
T1 sequence (Q07699 whole entry partner, looked up): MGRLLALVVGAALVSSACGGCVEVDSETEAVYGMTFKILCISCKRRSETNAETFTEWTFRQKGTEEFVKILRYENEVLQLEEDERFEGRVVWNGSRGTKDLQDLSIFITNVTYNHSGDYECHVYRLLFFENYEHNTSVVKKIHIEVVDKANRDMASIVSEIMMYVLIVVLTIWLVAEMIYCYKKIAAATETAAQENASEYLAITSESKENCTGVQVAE

SMILES: CC(C)COc1ncc(Oc2cc(F)c(C(=O)NS(N)(=O)=O)cc2Cl)cc1Cl [Preparation 4, 5-chloro-4-((5-chloro-6-isobutoxypyridin-3-yl)oxy)-2-fluoro-N-sulfamoylbenzamide]
- IC50 (hNaV1.7 [1]): 0.009 µM
- IC50 (hNaV1.7 [2]): 0.0708 µM

SMILES: NS(=O)(=O)NC(=O)c1cc(Cl)c(Oc2ccc(Cl)c(C(F)(F)F)c2)cc1F [Preparation 7, 5-chloro-4-(4-chloro-3-(trifluoromethyl)phenoxy)-2-fluoro-N-sulfamoyl-benzamide]
- IC50 (hNaV1.7 [1]): 0.19 µM
- IC50 (hNaV1.7 [2]): 1.13 µM

SMILES: CNS(=O)(=O)NC(=O)c1cc(Cl)c(Oc2ccc(Cl)c(C(F)(F)F)c2)cc1F [Preparation 8, 5-chloro-4-(4-chloro-3-(trifluoromethyl)phenoxy)-2-fluoro-N-(N-methyl-sulfamoyl)benzamide]
- IC50 (hNaV1.7 [1]): 0.022 µM
- IC50 (hNaV1.7 [2]): 0.109 µM

SMILES: NS(=O)(=O)NC(=O)c1cc(Cl)c(Oc2ccc(OC(F)(F)F)c(Cl)c2)cc1F [Preparation 10, 5-chloro-4-(3-chloro-4-(trifluoromethoxy)phenoxy)-2-fluoro-N-sulfamoyl-benzamide]
- IC50 (hNaV1.7 [1]): 0.226 µM
- IC50 (hNaV1.7 [2]): 2 µM

SMILES: CNS(=O)(=O)NC(=O)c1cc(Cl)c(Oc2ccc(OC(F)(F)F)c(Cl)c2)cc1F [Preparation 11, 5-chloro-4-(3-chloro-4-(trifluoromethoxy)phenoxy)-2-fluoro-N-(N-methyl-sulfamoyl)benzamide]
- IC50 (hNaV1.7 [1]): 0.015 µM
- IC50 (hNaV1.7 [2]): 0.145 µM

SMILES: CC(C)COc1ncc(Oc2cc(F)c(C(=O)NS(=O)(=O)N3CCCC3)cc2Cl)cc1Cl [Preparation 14, 5-chloro-4-((5-chloro-6-isobutoxypyridin-3-yl)oxy)-2-fluoro-N-(pyrrolidin-1-ylsulfonyl)benzamide]
- IC50 (hNaV1.7 [1]): 0.044 µM
- IC50 (hNaV1.7 [2]): 0.0301 µM

SMILES: CC(C)COc1ncc(Oc2cc(F)c(C(=O)NS(=O)(=O)N3CCCCC3)cc2Cl)cc1Cl [Preparation 15, 5-chloro-4-((5-chloro-6-isobutoxypyridin-3-yl)oxy)-2-fluoro-N-(piperidin-1-ylsulfonyl)benzamide]
- IC50 (hNaV1.7 [1]): 0.064 µM
- IC50 (hNaV1.7 [2]): 0.0584 µM

SMILES: CC(C)COc1ncc(Oc2cc(F)c(C(=O)NS(=O)(=O)N3CCCCCC3)cc2Cl)cc1Cl [Preparation 16, N-(azepan-1-ylsulfonyl)-5-chloro-4-((5-chloro-6-isobutoxypyridin-3-yl)oxy)-2-fluorobenzamide]
- IC50 (hNaV1.7 [1]): 0.073 µM
- IC50 (hNaV1.7 [2]): 0.542 µM

SMILES: CC(C)COc1ncc(Oc2cc(F)c(C(=O)NS(=O)(=O)N(C)C(C)C)cc2Cl)cc1Cl [Preparation 17, 5-chloro-4-((5-chloro-6-isobutoxypyridin-3-yl)oxy)-2-fluoro-N-(N-isopropyl-N-methylsulfamoyl) benzamide]
- IC50 (hNaV1.7 [1]): 0.125 µM
- IC50 (hNaV1.7 [2]): 0.123 µM

SMILES: CC(C)COc1ncc(Oc2cc(F)c(C(=O)NS(=O)(=O)Nc3ccc(C#N)cc3)cc2Cl)cc1Cl [Preparation 21, 5-chloro-4-((5-chloro-6-isobutoxypyridin-3-yl)oxy)-N-(N-(4-cyanophenyl)sulfamoyl)-2-fluoro-benzamide]
- IC50 (hNaV1.7 [1]): 0.828 µM
- IC50 (hNaV1.7 [2]): 2.94 µM

SMILES: CC(C)COc1ncc(Oc2cc(F)c(C(=O)NS(=O)(=O)c3cn(C)cn3)cc2Cl)cc1Cl [Preparation 24, 5-chloro-4-((5-chloro-6-isobutoxypyridin-3-yl)oxy)-2-fluoro-N-((1-methyl-1H-imidazol-4-yl)sulfonyl)benzamide]
- IC50 (hNaV1.7 [1]): 0.034 µM
- IC50 (hNaV1.7 [2]): 0.578 µM

SMILES: CC(C)COc1ncc(Oc2cc(F)c(C(=O)NS(=O)(=O)N3CCc4ccccc43)cc2Cl)cc1Cl [Preparation 25, 5-chloro-4-((5-chloro-6-isobutoxypyridin-3-yl)oxy)-2-fluoro-N-(indolin-1-yl-sulfonyl)benzamide]
- IC50 (hNaV1.7 [1]): 0.19 µM
- IC50 (hNaV1.7 [2]): 0.388 µM

SMILES: CC(C)COc1ncc(Oc2cc(F)c(C(=O)NS(=O)(=O)c3c[nH]cn3)cc2Cl)cc1Cl [Preparation 26, N-((1H-imidazol-4-yl)sulfonyl)-5-chloro-4-((5-chloro-6-isobutoxypyridin-3-yl)oxy)-2-fluorobenzamide]
- IC50 (hNaV1.7 [1]): 0.009 µM
- IC50 (hNaV1.7 [2]): 0.0773 µM

SMILES: CC(C)COc1ncc(Oc2cc(F)c(C(=O)NS(=O)(=O)c3cccnc3)cc2Cl)cc1Cl [Preparation 28, 5-chloro-4-((5-chloro-6-isobutoxypyridin-3-yl)oxy)-2-fluoro-N-(pyridin-3-yl-sulfonyl)benzamide]
- IC50 (hNaV1.7 [1]): 0.057 µM
- IC50 (hNaV1.7 [2]): 0.703 µM

Next, values leading:

- IC50 (hNaV1.7 [1]): 0.053 µM
- IC50 (hNaV1.7 [2]): 0.253 µM
SMILES: CN(C)S(=O)(=O)NC(=O)c1cc(Cl)c(Oc2ccc(Cl)c(C(F)(F)F)c2)cc1F [Preparation 1, 5-chloro-4-(4-chloro-3-(trifluoromethyl)phenoxy)-N-(N,N-dimethylsulfamoyl)-2-fluorobenzamide]

- IC50 (hNaV1.7 [1]): 0.019 µM
- IC50 (hNaV1.7 [2]): 0.174 µM
SMILES: CN(C)S(=O)(=O)NC(=O)c1cc(Cl)c(COc2ccc(Cl)c(Cl)c2)cc1F [Preparation 5, 5-chloro-4-((3,4-dichlorophenoxy)methyl)-N-(N,N-dimethylsulfamoyl)-2-fluorobenzamide]

- IC50 (hNaV1.7 [1]): 0.041 µM
- IC50 (hNaV1.7 [2]): 0.218 µM
SMILES: CN(C)S(=O)(=O)NC(=O)c1cc(Cl)c(Oc2ccc(OC(F)(F)F)c(Cl)c2)cc1F [Preparation 12, 5-chloro-4-(3-chloro-4-(trifluoromethoxy)phenoxy)-N-(N,N-dimethylsulfamoyl)-2-fluorobenzamide]

- IC50 (hNaV1.7 [1]): 0.271 µM
- IC50 (hNaV1.7 [2]): 1.25 µM
SMILES: CN(C)S(=O)(=O)NC(=O)c1cc(Cl)c(OCc2ccc(Cl)c(Cl)c2)cc1F [Preparation 23, 5-chloro-4-((3,4-dichlorobenzyl)oxy)-N-(N,N-dimethyl-sulfamoyl)-2-fluoro-benzamide]

- IC50 (hNaV1.7 [1]): 0.034 µM
- IC50 (hNaV1.7 [2]): 0.0478 µM
SMILES: CN(C)S(=O)(=O)NC(=O)c1cc(Cl)c(Oc2cnc(OCC(F)(F)C(F)F)c(Cl)c2)cc1F [Preparation 30, 5-chloro-4-(5-chloro-6-(2,2,3,3-tetrafluoro-propoxy)pyridin-3-yloxy)-N-(N,N-dimethylsulfamoyl)-2-fluorobenzamide]

- IC50 (hNaV1.7 [1]): 0.0343 µM
- IC50 (hNaV1.7 [2]): 0.22 µM
SMILES: CN(C)S(=O)(=O)NC(=O)c1cc(Cl)c(COc2cnc(OCC(F)(F)C(F)F)c(Cl)c2)cc1F [Preparation 76]

- IC50 (hNaV1.7 [1]): 0.0116 µM
- IC50 (hNaV1.7 [2]): 0.028 µM
SMILES: CNS(=O)(=O)NC(=O)c1cc(Cl)c(COc2ccc(Cl)c(Cl)c2)cc1F [Preparation 80]
